Columns and labels:
[1] = target: T1, recombinant human Cyp19 enzyme (Homo sapiens, UniProt P11511); test: Cyp19/MFC high throughput enzyme inhibition kit (aromatase); assay type: biochemical
T1 construct: purchased Becton Dickinson Biosciences, San Jose, Calif., USA
T1 sequence (P11511 1-503): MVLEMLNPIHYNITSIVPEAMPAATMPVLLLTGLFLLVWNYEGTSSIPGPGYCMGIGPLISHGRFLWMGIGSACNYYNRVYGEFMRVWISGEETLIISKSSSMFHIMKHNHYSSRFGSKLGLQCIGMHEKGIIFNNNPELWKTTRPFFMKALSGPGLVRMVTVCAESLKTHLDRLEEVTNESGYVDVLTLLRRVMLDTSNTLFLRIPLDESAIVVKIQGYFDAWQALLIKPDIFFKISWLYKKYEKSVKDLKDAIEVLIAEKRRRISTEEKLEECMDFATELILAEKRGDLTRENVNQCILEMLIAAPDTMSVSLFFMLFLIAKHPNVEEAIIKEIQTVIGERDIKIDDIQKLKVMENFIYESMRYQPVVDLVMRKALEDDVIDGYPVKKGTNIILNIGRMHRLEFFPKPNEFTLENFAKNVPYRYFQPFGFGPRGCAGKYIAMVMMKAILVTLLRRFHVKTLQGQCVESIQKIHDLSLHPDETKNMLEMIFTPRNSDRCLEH
Experimental: The compounds of the formula (Ia) have at least one asymmetric carbon atom, which is labelled “*”. A compound of the formula (Ia) is to be understood as a compound having a specific configuration around the designated asymmetric carbon atom. If a synthesis method is used which leads to racemic compounds, the racemate resolution is carried out in accordance with conventional methods, such as via a chiral HPLC column. […] The aforementioned aromatase inhibitory activity can, as the skilled worker is well aware and as described below, be comfortably determined using the commercial Cyp19 enzyme inhibition kit, preferably the Cyp19/methoxy-4-trifluoromethyl-coumarin (MFC) high throughput inhibition kit (Becton Dickinson Biosciences, San Jose, Calif., USA) as described hereafter. In the abovementioned inhibition kit, compounds of the formula (Ia) have an activity which is at least 10 times lower preferably 20 times lower, but more preferably 40 times lower than the compounds of the formula (Ia) with the opposite configuration around the asymmetric carbon atom labelled “*”. A lower inhibiting activity corresponds to a higher IC50 value.
The Cyp19/methoxy-4-trifluoromethyl-coumarin (MFC) high throughput inhibition kit (Becton Dickinson Biosciences, San Jose, Calif., USA), for example, is designed to screen for potential inhibitors of Cyp19 catalytic activity in a 96-well format. […]

[2] = test system: plasma aldosterone levels; test: Suppression of plasma aldosterone in ACTH-stimulated rats; assay type: in vivo, Wistar rats; conditions: 4 mg/kg p.o.; plasma level 2 h after dosing relative to 1 h prior to dosing; rat
Experimental: (§1) The aldosterone- and corticosterone-suppressing activity of herein described compounds may be assessed with the following in vivo protocol.
(§2) Adult male Wistar rats weighing between 250 and 350 grams are kept under the usual 12-hour light and 12-hour dark conditions at a temperature of 23° C.±2° C. On the first day of the experiment, the animals receive a subcutaneous injection of a depot ACTH product in a dose of 1.0 mg/kg weight (SYNACTHEN-Depot, Novartis, Basel, CH) 16 hours prior to the administration of a test compound. […] An alternative method to stimulate aldosterone secretion consists in subjecting rats to a low salt diet for 48 hours and applying the diuretic furosemide at 10 mg/kg by subcutaneous or intraperitoneal administration 16 hours, respectively 2 hours prior to the start of the experiment. On the second day of the experiment, the animals are divided into test groups of 5 animals and subjected to a first bleed 1 hour prior to the administration of test compound. Subsequently, and 16 hours after the injection of the ACTH product, the animals receive either vehicle or test compound dissolved in vehicle in a variable dose range from 0.02 to 20 mg/kg by oral gavage. The animals are bled two more times from the vena subclavia under isoflurane anaesthesia 2 and 6 hours after dosing. The blood is collected in heparin-treated tubes. The plasma samples are obtained by centrifugation and stored at −20° C. An alternative method to bleed animals time-dependently consists in using animals that are chronically carotid catheterized which allows the periodical sampling of up to 0.2 ml of blood using an AccuSampler (DiLab Europe, Lund, Sweden). The blood sampling with the AccuSampler may occur 1 hour prior to the administration of a test compound and 2, 4, 6, 8, 12, 16 and 24 hours thereafter. The blood samples are anticoagulated with heparin and centrifuged. The aldosterone and corticosterone concentrations of the plasma samples can be determined with a radioimmunoassay as described above for the in vitro test systems.
(§3) The selective suppression of plasma steroid levels as for instance aldosterone in comparison to corticosterone may serve as a measure for in vivo bioavailability and pharmacodynamic enzyme inhibitory activity of the herein described compounds. The evaluation of the data may occur relative to the application of vehicle or quantitatively by determination of the area under the curve (AUC).

[3] = test system: plasma corticosterone levels; test: Suppression of plasma corticosterone in ACTH-stimulated rats; assay type: in vivo, Wistar rats; conditions: 4 mg/kg p.o.; plasma level 2 h after dosing relative to 1 h prior to dosing; rat
Experimental: as §1, §2, §3

| Compound | IC50 [1] [nM] | Aldosterone levels (% change at 2 h) [2] [%] | Corticosterone levels (% change at 2 h) [3] [%] |
| --- | --- | --- | --- |
| N#Cc1ccc(C2OCCn3cncc32)cc1 (racemic) [antipode of 24, 4-(5,6-Dihydro-8H-imidazo[5,1-c][1,4]oxazin-8-yl)benzonitrile] | 7.1 | – | – |
| N#Cc1ccc(C2SCCn3cncc32)cc1 (stereo not drawn) [Example 2, 4-(5,6-Dihydro-8H-imidazo[5,1-c][1,4]thiazin-8-yl)benzonitrile] | – | −56 | −22 |
| CC1(c2ccc(C#N)cc2)SCCn2cncc21 (stereo not drawn) [Example 4, 4-(8-Methyl-5,6-dihydro-8H-imidazo[5,1-c][1,4]thiazin-8-yl)-benzonitrile] | – | −19 | −10 |
| CC(=O)c1ccc(C2OCCn3cncc32)cc1 (stereo not drawn) [Example 18, 1-[4-(5,6-Dihydro-8H-imidazo[5,1-c][1,4]oxazin-8-yl)phenyl]ethanone] | – | −33 | 4 |
| N#Cc1cccc(C2OCCn3cncc32)c1 (stereo not drawn) [Example 19, 3-(5,6-Dihydro-8H-imidazo[5,1-c][1,4]oxazin-8-yl)benzonitrile] | – | −65 | 1.7 |
